From patent US9725416B2, “Ethynyl derivatives” (Hoffmann-La Roche Inc., priority 2014, dated 2017)

Target: T1, human mGlu4 receptor (Homo sapiens, UniProt Q14833)
T1 construct: expressed in transfected cells; host or cells: HEK-293 (monoclonal, stably transfected)
Experiment: Ca2+ mobilization in vitro assay on recombinant human mGlu4 expressed in HEK293 cells (mGlu4 PAM)
Format: cell-based
Settings: for Emax: HEK293, maximal response in % of the maximal stimulatory effect obtained with saturating concentrations of L-AP4, read-out: Eff. (%); for EC50: HEK-293 cells, Ca2+ mobilization, L-AP4 added at EC20
Description: Determination of EC50 Values Using a Ca2+ mobilization in vitro Assay on Recombinant Human mGlu4 Expressed in HEK293 cells:
A monoclonal HEK-293 cell line stably transfected with a cDNA encoding for the human mGlu4 receptor was generated; for the work with mGlu4 Positive Allosteric Modulators (PAMs), a cell line with low receptor expression levels and low constitutive receptor activity was selected to allow the differentiation of agonistic versus PAM activity. Cells were cultured according to standard protocols (Freshney, 2000) in Dulbecco's Modified Eagle Medium with high glucose supplemented with 1 mM glutamine, 10% (vol/vol) heat-inactivated bovine calf serum, Penicillin/Streptomycin, 50 μg/ml hygromycin and 15 μg/ml blasticidin (all cell culture reagents and antibiotics from Invitrogen, Basel, Switzerland).
About 24 hrs before an experiment, 5×10^4 cells/well were seeded in poly-D-lysine coated, black/clear-bottomed 96-well plates. The cells were loaded with 2.5 μM Fluo-4AM in loading buffer (1×HBSS, 20 mM HEPES) for 1 hr at 37° C. and washed five times with loading buffer. The cells were transferred into a Functional Drug Screening System 7000 (Hamamatsu, Paris, France), and 11 half logarithmic serial dilutions of test compound at 37° C. were added and the cells were incubated for 10-30 min. with on-line recording of fluorescence. Following this pre-incubation step, the agonist (2S)-2-amino-4-phosphonobutanoic acid (L-AP4) was added to the cells at a concentration corresponding to EC20 with on-line recording of fluorescence; in order to account for day-to-day variations in the responsiveness of cells, the EC20 of L-AP4 was determined immediately ahead of each experiment by recording of a full dose-response curve of L-AP4.
Responses were measured as peak increase in fluorescence minus basal (i.e. fluorescence without addition of L-AP4), normalized to the maximal stimulatory effect obtained with saturating concentrations of L-AP4. Graphs were plotted with the % maximal stimulatory using XLfit, a curve fitting program that iteratively plots the data using Levenburg Marquardt algorithm. The single site competition analysis equation used was y=A+((B−A)/(1+((x/C)D))), where y is the % maximal stimulatory effect, A is the minimum y, B is the maximum y, C is the EC50, x is the log 10 of the concentration of the competing compound and D is the slope of the curve (the Hill Coefficient). From these curves the EC50 (drug concentration at which 50% of the maximal receptor activation was achieved), the Hill coefficient as well as the maximal response in % of the maximal stimulatory effect obtained with saturating concentrations of L-AP4 were calculated (see FIG. 1).
A depression of the signal observed after addition of the EC20 concentration of L-AP4was indicative of an inhibitory activity of the test compound.

T1 sequence (Q14833 33-912): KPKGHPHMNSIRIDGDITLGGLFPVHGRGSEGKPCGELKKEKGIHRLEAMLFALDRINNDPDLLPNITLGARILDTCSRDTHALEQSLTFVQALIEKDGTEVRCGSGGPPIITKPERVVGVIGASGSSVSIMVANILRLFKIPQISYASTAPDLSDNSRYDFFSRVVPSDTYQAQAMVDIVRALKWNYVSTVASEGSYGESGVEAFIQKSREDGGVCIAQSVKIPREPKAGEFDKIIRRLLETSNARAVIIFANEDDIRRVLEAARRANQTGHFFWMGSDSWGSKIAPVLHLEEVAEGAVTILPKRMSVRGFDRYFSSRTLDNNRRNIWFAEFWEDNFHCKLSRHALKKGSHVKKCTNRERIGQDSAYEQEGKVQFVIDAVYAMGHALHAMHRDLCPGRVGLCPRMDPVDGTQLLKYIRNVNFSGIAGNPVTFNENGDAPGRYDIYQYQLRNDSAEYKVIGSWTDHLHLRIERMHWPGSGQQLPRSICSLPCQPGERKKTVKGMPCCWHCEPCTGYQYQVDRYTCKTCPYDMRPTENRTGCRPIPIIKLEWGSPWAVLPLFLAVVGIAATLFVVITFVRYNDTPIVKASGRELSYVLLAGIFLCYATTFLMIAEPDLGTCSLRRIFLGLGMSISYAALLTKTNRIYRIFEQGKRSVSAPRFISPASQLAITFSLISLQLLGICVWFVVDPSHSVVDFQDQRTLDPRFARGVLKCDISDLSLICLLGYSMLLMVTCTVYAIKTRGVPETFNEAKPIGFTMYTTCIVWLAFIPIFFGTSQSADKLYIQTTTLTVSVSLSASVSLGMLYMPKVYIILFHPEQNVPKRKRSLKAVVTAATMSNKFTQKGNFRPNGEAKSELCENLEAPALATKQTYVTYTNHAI

SMILES	Emax [%]	EC50 [nM]
CN1C(=O)N(c2ncc(C#Cc3ccccc3)cc2F)C(=O)C[C@@]1(C)c1cccnc1 [Example 50, (6S)-3-[3-Fluoro-5-(2-phenylethynyl)-2-pyridyl]-1,6-dimethyl-6-(3-pyridyl)hexahydropyrimidine-2,4-dione]	164	104
CN1C(=O)N(c2c(F)cc(C#Cc3cccnc3)cc2F)C(=O)C[C@@]1(C)c1cccnc1 [Example 53, (6S)-3-[2,6-Difluoro-4-[2-(3-pyridyl)ethynyl]phenyl]-1,6-dimethyl-6-(3-pyridyl)hexahydropyrimidine-2,4-dione]	110	80
Cc1ccc([C@]2(C)CC(=O)N(c3c(F)cc(C#Cc4ccccc4)cc3F)C(=O)N2C)cn1 [Example 54, (6S)-3-[2,6-Difluoro-4-(2-phenylethynyl)phenyl]-1,6-dimethyl-6-(6-methyl-3-pyridyl)hexahydropyrimidine-2,4-dione]	98	70
CN1C(=O)N(c2c(F)cc(C#Cc3ccccc3)cc2F)C(=O)C[C@@]1(C)c1cncnc1 [Example 56, (6S)-3-[2,6-Difluoro-4-(2-phenylethynyl)phenyl]-1,6-dimethyl-6-pyrimidin-5-yl-hexahydropyrimidine-2,4-dione]	99	79
CN1C(=O)N(c2c(F)cc(C#Cc3ccccc3)cc2F)C(=O)C[C@@]1(C)c1cnccn1 [Example 57, (6S)-3-[2,6-Difluoro-4-(2-phenylethynyl)phenyl]-1,6-dimethyl-6-pyrazin-2-yl-hexahydropyrimidine-2,4-dione]	102	117
CN1C(=O)N(c2c(F)cc(C#Cc3ccccc3)cc2F)C(=O)C[C@@]1(C)c1cncc(F)c1 [Example 59, (6S)-3-[2,6-Difluoro-4-(2-phenylethynyl)phenyl]-6-(5-fluoro-3-pyridyl)-1,6-dimethyl-hexahydropyrimidine-2,4-dione]	89	75
CN1C(=O)N(c2c(F)cc(C#Cc3ccccc3)cc2F)C(=O)C[C@@]1(C)c1ccnnc1 [Example 61, (6S)-3-[2,6-Difluoro-4-(2-phenylethynyl)phenyl]-1,6-dimethyl-6-pyridazin-4-yl-hexahydropyrimidine-2,4-dione]	136	84
Cc1cc([C@]2(C)CC(=O)N(c3c(F)cc(C#Cc4ccccc4)cc3F)C(=O)N2C)ccn1 [Example 62, (6S)-3-[2,6-Difluoro-4-(2-phenylethynyl)phenyl]-1,6-dimethyl-6-(2-methyl-4-pyridyl)hexahydropyrimidine-2,4-dione]	102	56
CN1C(=O)N(c2c(F)cc(C#Cc3cccnc3)cc2F)C(=O)C[C@@]1(C)c1ccnc(Cl)c1 [Example 64, (6S)-6-(2-Chloro-4-pyridyl)-3-[2,6-difluoro-4-[2-(3-pyridyl)ethynyl]phenyl]-1,6-dimethyl-hexahydropyrimidine-2,4-dione]	119	124
CCn1cc([C@]2(C)CC(=O)N(c3c(F)cc(C#Cc4ccccc4)cc3F)C(=O)N2C)ccc1=O [Example 67, (6S)-3-[2,6-Difluoro-4-(2-phenylethynyl)phenyl]-6-(1-ethyl-6-oxo-3-pyridyl)-1,6-dimethyl-hexahydropyrimidine-2,4-dione]	106	56
CC(C)Oc1ccc([C@]2(C)CC(=O)N(c3c(F)cc(C#Cc4ccccc4)cc3F)C(=O)N2C)cn1 [Example 69, (6S)-3-[2,6-Difluoro-4-(2-phenylethynyl)phenyl]-6-(6-isopropoxy-3-pyridyl)-1,6-dimethyl-hexahydropyrimidine-2,4-dione]	95	97
CC(C)N1C(=O)N(c2c(F)cc(C#Cc3ccccc3)cc2F)C(=O)C[C@@]1(C)c1cccnc1 [Example 70, (6S)-3-[2,6-Difluoro-4-(2-phenylethynyl)phenyl]-1-isopropyl-6-methyl-6-(3-pyridyl)hexahydropyrimidine-2,4-dione]	106	73
CN1C(=O)N(c2c(F)cc(C#Cc3ccccc3)cc2Cl)C(=O)C[C@@]1(C)c1cccnc1 [Example 71, (6S)-3-[2-Chloro-6-fluoro-4-(2-phenylethynyl)phenyl]-1,6-dimethyl-6-(3-pyridyl)hexahydropyrimidine-2,4-dione]	105	148

The next lines start with the values.

Emax [%]	EC50 [nM]	SMILES
98	37	CN1C(=O)N(c2c(F)cc(C#Cc3ccccc3)cc2F)C(=O)C[C@@]1(C)c1cccnc1 [Example 49, (6S)-3-[2,6-Difluoro-4-(2-phenylethynyl)phenyl]-1,6-dimethyl-6-(3-pyridyl)hexahydropyrimidine-2,4-dione]
99	48	CCN1C(=O)N(c2c(F)cc(C#Cc3ccccc3)cc2F)C(=O)C[C@@]1(C)c1cccnc1 [Example 52, (6S)-3-[2,6-Difluoro-4-(2-phenylethynyl)phenyl]-1-ethyl-6-methyl-6-(3-pyridyl)hexahydropyrimidine-2,4-dione]
106	44	CN1C(=O)N(c2c(F)cc(C#Cc3ccccc3)cc2F)C(=O)C[C@@]1(C)c1ccncn1 [Example 55, (6S)-3-[2,6-Difluoro-4-(2-phenylethynyl)phenyl]-1,6-dimethyl-6-pyrimidin-4-yl-hexahydropyrimidine-2,4-dione]
99	49	CN1C(=O)N(c2c(F)cc(C#Cc3ccccc3)cc2F)C(=O)C[C@@]1(C)c1cccnn1 [Example 58, (6S)-3-[2,6-Difluoro-4-(2-phenylethynyl)phenyl]-1,6-dimethyl-6-pyridazin-3-yl-hexahydropyrimidine-2,4-dione]
113	38	CN1C(=O)N(c2c(F)cc(C#Cc3ccccc3)cc2F)C(=O)C[C@@]1(C)c1ccnc(Cl)c1 [Example 60, (6S)-6-(2-Chloro-4-pyridyl)-3-[2,6-difluoro-4-(2-phenylethynyl)phenyl]-1,6-dimethyl-hexahydropyrimidine-2,4-dione]
109	42	COc1ccc([C@]2(C)CC(=O)N(c3c(F)cc(C#Cc4ccccc4)cc3F)C(=O)N2C)cn1 [Example 63, (6S)-3-[2,6-Difluoro-4-(2-phenylethynyl)phenyl]-6-(6-methoxy-3-pyridyl)-1,6-dimethyl-hexahydropyrimidine-2,4-dione]
123	36	CN1C(=O)N(c2c(F)cc(C#Cc3ccccc3)cc2F)C(=O)C[C@@]1(C)c1ccc(=O)[nH]c1 [Example 65, (6S)-3-[2,6-Difluoro-4-(2-phenylethynyl)phenyl]-1,6-dimethyl-6-(6-oxo-1H-pyridin-3-yl)hexahydropyrimidine-2,4-dione]
114	43	CN1C(=O)N(c2c(F)cc(C#Cc3ccccc3)cc2F)C(=O)C[C@@]1(C)c1ccc(=O)n(C)c1 [Example 66, (6S)-3-[2,6-Difluoro-4-(2-phenylethynyl)phenyl]-1,6-dimethyl-6-(1-methyl-6-oxo-3-pyridyl)hexahydropyrimidine-2,4-dione]
113	44	CC(C)n1cc([C@]2(C)CC(=O)N(c3c(F)cc(C#Cc4ccccc4)cc3F)C(=O)N2C)ccc1=O [Example 68, (6S)-3-[2,6-Difluoro-4-(2-phenylethynyl)phenyl]-6-(1-isopropyl-6-oxo-3-pyridyl)-1,6-dimethyl-hexahydropyrimidine-2,4-dione]
120	47	COc1cc([C@]2(C)CC(=O)N(c3c(F)cc(C#Cc4ccccc4)cc3F)C(=O)N2C)ccn1 [Example 73, (6S)-3-[2,6-Difluoro-4-(2-phenylethynyl)phenyl]-6-(2-methoxy-4-pyridyl)-1,6-dimethyl-hexahydropyrimidine-2,4-dione]
116	42	CN1C(=O)N(c2c(F)cc(C#Cc3ccccc3)cc2F)C(=O)C[C@@]1(C)c1cc[nH]c(=O)c1 [Example 74, (6S)-3-[2,6-Difluoro-4-(2-phenylethynyl)phenyl]-1,6-dimethyl-6-(2-oxo-1H-pyridin-4-yl)hexahydropyrimidine-2,4-dione]
108	55	CN1C(=O)N(c2c(F)cc(C#Cc3ccccc3)cc2F)C(=O)C[C@@]1(C)c1ccn(C)c(=O)c1 [Example 75, (6S)-3-[2,6-Difluoro-4-(2-phenylethynyl)phenyl]-1,6-dimethyl-6-(1-methyl-2-oxo-4-pyridyl)hexahydropyrimidine-2,4-dione]
